Assay: mn = molality of the nth substance listed, in mol/kg
Conditions: 74.66 kPa, Liquid; for speed of sound: Frequency=3 MHz, Single path-length method; for mass density: Vibrating tube method

Cc1cc(C)nc([N-]S(=O)(=O)c2ccc(N)cc2)n1.[Na+] + O
Conditions | mass density [kg/m3] | speed of sound [m/s]
278.15 K, m1 = 0.00501 | 1000.54 | 1427.9
278.15 K, m1 = 0.00799 | 1000.88 | 1428.7
278.15 K, m1 = 0.01 | 1001.11 | 1429.2
278.15 K, m1 = 0.01488 | 1001.67 | 1430.3
278.15 K, m1 = 0.01983 | 1002.23 | 1431.3
278.15 K, m1 = 0.02501 | 1002.81 | 1432.3
278.15 K, m1 = 0.02961 | 1003.34 | 1433.5
278.15 K, m1 = 0.03503 | 1003.95 | 1434.6
278.15 K, m1 = 0.0401 | 1004.52 | 1435.7
278.15 K, m1 = 0.04493 | 1005.06 | 1436.6
278.15 K, m1 = 0.04993 | 1005.63 | 1437.7
278.15 K, m1 = 0.05504 | 1006.2 | 1438.8
278.15 K, m1 = 0.05966 | 1006.73 | 1439.9
283.15 K, m1 = 0.00501 | 1000.27 | 1448.8
283.15 K, m1 = 0.00799 | 1000.6 | 1449.4
283.15 K, m1 = 0.01 | 1000.83 | 1449.9
283.15 K, m1 = 0.01488 | 1001.37 | 1450.9
283.15 K, m1 = 0.01983 | 1001.92 | 1451.9
283.15 K, m1 = 0.02501 | 1002.5 | 1452.9
283.15 K, m1 = 0.02961 | 1003.01 | 1453.9
283.15 K, m1 = 0.03503 | 1003.61 | 1455
283.15 K, m1 = 0.0401 | 1004.18 | 1456
283.15 K, m1 = 0.04493 | 1004.71 | 1456.8
283.15 K, m1 = 0.04993 | 1005.27 | 1457.8
283.15 K, m1 = 0.05504 | 1005.83 | 1458.8
283.15 K, m1 = 0.05966 | 1006.35 | 1459.8
288.15 K, m1 = 0.00501 | 999.659 | 1467.2
288.15 K, m1 = 0.00799 | 999.989 | 1467.8
288.15 K, m1 = 0.01 | 1000.21 | 1468.3
288.15 K, m1 = 0.01488 | 1000.75 | 1469.2
288.15 K, m1 = 0.01983 | 1001.29 | 1470.1
288.15 K, m1 = 0.02501 | 1001.86 | 1471.1
288.15 K, m1 = 0.02961 | 1002.36 | 1472
288.15 K, m1 = 0.03503 | 1002.95 | 1473
288.15 K, m1 = 0.0401 | 1003.51 | 1474
288.15 K, m1 = 0.04493 | 1004.03 | 1474.8
288.15 K, m1 = 0.04993 | 1004.58 | 1475.7
288.15 K, m1 = 0.05504 | 1005.14 | 1476.7
288.15 K, m1 = 0.05966 | 1005.65 | 1477.6
293.15 K, m1 = 0.00501 | 998.758 | 1483.5
293.15 K, m1 = 0.00799 | 999.081 | 1484
293.15 K, m1 = 0.01 | 999.302 | 1484.5
293.15 K, m1 = 0.01488 | 999.834 | 1485.3
293.15 K, m1 = 0.01983 | 1000.37 | 1486.2
293.15 K, m1 = 0.02501 | 1000.92 | 1487.1
293.15 K, m1 = 0.02961 | 1001.42 | 1487.9
293.15 K, m1 = 0.03503 | 1002 | 1488.9
293.15 K, m1 = 0.0401 | 1002.55 | 1489.8
293.15 K, m1 = 0.04493 | 1003.07 | 1490.5
293.15 K, m1 = 0.04993 | 1003.61 | 1491.4
293.15 K, m1 = 0.05504 | 1004.16 | 1492.3
293.15 K, m1 = 0.05966 | 1004.66 | 1493.2
298.15 K, m1 = 0.00501 | 997.59 | 1497.7
298.15 K, m1 = 0.00799 | 997.912 | 1498.2
298.15 K, m1 = 0.01 | 998.128 | 1498.6
298.15 K, m1 = 0.01488 | 998.655 | 1499.4
298.15 K, m1 = 0.01983 | 999.182 | 1500.2
298.15 K, m1 = 0.02501 | 999.733 | 1501.1
298.15 K, m1 = 0.02961 | 1000.22 | 1501.9
298.15 K, m1 = 0.03503 | 1000.79 | 1502.8
298.15 K, m1 = 0.0401 | 1001.34 | 1503.6
298.15 K, m1 = 0.04493 | 1001.85 | 1504.3
298.15 K, m1 = 0.04993 | 1002.39 | 1505.2
298.15 K, m1 = 0.05504 | 1002.93 | 1506
298.15 K, m1 = 0.05966 | 1003.42 | 1506.8
303.15 K, m1 = 0.00501 | 996.185 | 1510.1
303.15 K, m1 = 0.00799 | 996.504 | 1510.6
303.15 K, m1 = 0.01 | 996.718 | 1510.9
303.15 K, m1 = 0.01488 | 997.238 | 1511.7
303.15 K, m1 = 0.01983 | 997.76 | 1512.4
303.15 K, m1 = 0.02501 | 998.303 | 1513.2
303.15 K, m1 = 0.02961 | 998.79 | 1514
303.15 K, m1 = 0.03503 | 999.357 | 1514.8
303.15 K, m1 = 0.0401 | 999.892 | 1515.6
303.15 K, m1 = 0.04493 | 1000.4 | 1516.3
303.15 K, m1 = 0.04993 | 1000.93 | 1517.1
303.15 K, m1 = 0.05504 | 1001.47 | 1517.8
303.15 K, m1 = 0.05966 | 1001.95 | 1518.6
308.15 K, m1 = 0.00501 | 994.563 | 1520.7
308.15 K, m1 = 0.00799 | 994.878 | 1521.2
308.15 K, m1 = 0.01 | 995.089 | 1521.5
308.15 K, m1 = 0.01488 | 995.605 | 1522.2
308.15 K, m1 = 0.01983 | 996.12 | 1523
308.15 K, m1 = 0.02501 | 996.661 | 1523.7
308.15 K, m1 = 0.02961 | 997.14 | 1524.4
308.15 K, m1 = 0.03503 | 997.703 | 1525.2
308.15 K, m1 = 0.0401 | 998.234 | 1525.9
308.15 K, m1 = 0.04493 | 998.733 | 1526.6
308.15 K, m1 = 0.04993 | 999.258 | 1527.3
308.15 K, m1 = 0.05504 | 999.792 | 1528
308.15 K, m1 = 0.05966 | 1000.27 | 1528.7

From the NIST ThermoML archive (doi:10.1016/j.jct.2017.11.007)
